Values after ≈ are worked out from the molar mass of the structure shown.

Common to all, as to type: functional
The species named for one assay is Rattus norvegicus. Briefly: Growth inhibitory activity against H-ras transformed rat 2 tumor cell line. As to conditions: Rat2.
A further assay has as its system NCI-H23. Briefly: Growth inhibitory activity against human NCI-H23 lung tumor cell line.
For another assay, the system named is HCT-116. Nature of the assay: Growth inhibitory activity against human HCT116 colon tumor cell line.
For the next assay, the system named is SW-620. Nature of the assay: Growth inhibitory activity against human SW620 colon tumor cell line.
In a further assay the test system is MDA-MB-231. Nature of the assay: Growth inhibitory activity against human MDA-MB-231 breast tumor cell line.
The subject of a further assay is A549. Briefly: Inhibitory activity against human A549 lung tumor cell proliferation.

As a reminder, the GI50 is the concentration that inhibits growth by half. A lower GI50 goes with more potent growth inhibition. Regarding `CC(C)c1cc2c(cc1O)[C@@]1(CO)CCCC(C)(C)[C@@H]1CC2` [PISIFEROL], the GI50 in the assay listed under Rattus norvegicus amounted to 2.3 µg/mL (≈ 7.6 µM); in the assay on NCI-H23 it was 2.8 µg/mL (≈ 9.26 µM); with HCT-116, 4.34 µg/mL (≈ 14.3 µM); in the assay with SW-620, 8.22 µg/mL (≈ 27.2 µM); in the assay on MDA-MB-231, 8.34 µg/mL (≈ 27.6 µM); in the assay on A549 it was 2.9 µg/mL (≈ 9.59 µM).
Regarding `CC(C)c1cc2c(cc1O)[C@@]1(C)CCCC(C)(C)[C@@H]1CC2` [FERRUGINOL], the GI50 in the assay on NCI-H23, with HCT-116, in the assay with SW-620, with MDA-MB-231 and in the assay with A549 was less than 50 µg/mL throughout.
`CC(C)c1cc2c(cc1O)[C@@]1(C)CCCC(C)(C)[C@@H]1C(O)C2=O` (some centres not stated): the concentration for 50% growth inhibition (GI50) in the assay filed under Rattus norvegicus stood at 3.5 µg/mL (≈ 11.1 µM); with NCI-H23, 2.21 µg/mL (≈ 6.98 µM); in the assay with HCT-116, 2.52 µg/mL (≈ 7.96 µM); in the assay with SW-620, 3.98 µg/mL (≈ 12.6 µM); in the assay with MDA-MB-231, 3.64 µg/mL (≈ 11.5 µM); with A549, 1.42 µg/mL (≈ 4.49 µM).
`CC(C)c1cc2c(cc1O)[C@@]1(C)CCCC(C)(C)[C@@H]1CC2=O` [SUGIOL]: the GI50 in the assay on NCI-H23, in the assay with HCT-116, in the assay on SW-620, in the assay on MDA-MB-231 and with A549 was less than 50 µg/mL in each case.
`CC(C)c1cc2c(cc1O)[C@@]1(C)CCC[C@@](C)(CO)[C@@H]1CC2` [18-HYDROXYFERRUGINOL]: the GI50 in the assay on NCI-H23, in the assay on HCT-116, in the assay on SW-620, with MDA-MB-231 and with A549 was less than 50 µg/mL throughout.

The record behind these values is ChEMBL document CHEMBL1143524, “Anti-tumor abietane diterpenes from the cones of Sequoia sempervirens” (2005).
